In patent US11952611B2, “Methods and systems for detection of antibiotic resistance” (Laboratory Corporation of America Holdings, priority 2017, dated 2024):

Experiments:
Assay type in all cases: cell-based, Staphylococcus aureus
MRSA [1] = experiment: Recombinant phage luciferase assay, oxacillin vs cefoxitin (Table 1), MRSA strains
Protocol: Bacterial strains were serially diluted to approximately 1×10^3 CFU/mL and transferred to a 96-well plate at 135 μL per well. 15 μL of oxacillin or cefoxitin were added to the wells to reach a final concentration of 1.0 μg/mL or 2.0 μg/mL of oxicillin or 2.0 μg/mL, 4.0 μg/mL, 8.0 μg/mL, or 10.0 μg/mL of cefoxitin. The plate was then sealed and incubated at 37° C. for 2 hours. 10 μL of recombinant phage (1.6×10^8 pfu/mL) was added to each well. The plate was then re-sealed and incubated at 37° C. for 2 hours. A master mix was made containing 15 μL 5× lysis buffer, 50 μL luciferase assay buffer, and 1 μL luciferase substrate per well. 65 μL of master mix was added to each well. Luminescence from the reactions was read on a GLOMAX® Navigator and relative luminal units (RLU) for each reaction were analyzed. RLU values three times greater than an established background RLU level for LB (>750 RLU) were considered positive. The results, shown in Table 1, indicate that the recombinant phage are capable of detecting the tested bacterial strains.

BAA-1720 MRSA = experiment: MRSA detection from Copan e-Swabs (Table 3)
Protocol: Bacterial strains were serially diluted and Copan e-Swabs™ were inoculated with 100 μL of LB with approximately the target number of cells of 1000 CFU, 500 CFU, 250 CFU, 125 CFU, 63 CFU, 31 CFU, 16 CFU, or 8 CFU. Swabs were then eluted in 1 mL modified Amies solution (included with commercially available Copan e-Swabs™). 135 μL of this solution was added to each well of a 96-well plate. 15 μL of cefoxitin was added to the wells to reach a final concentration of 1.8 μg/mL, 3.6 μg/mL, or 5.4 μg/mL. The plate was then sealed and incubated at 37° C. for 2 hours. 10 μL of recombinant phage (1.6×10^8 pfu/mL) was added to each well. The plate was then re-sealed and incubated at 37° C. for an additional 2 hours. A master mix was made containing 15 μL 5× lysis buffer, 50 μL luciferase assay buffer, and 1 μL luciferase substrate per well. 65 μL of master mix was added to each well. Luminescence from the reactions was read on a GLOMAX® Navigator and relative luminal units (RLU) for each reaction were plotted and analyzed. RLU values three times greater than an established background RLU level for modified Amies solution (>1500 RLU) were considered positive. The results, shown in Table 3, indicate that a positive MRSA determination was made with 17 CFU in a well, originating from approximately 125 CFU on a swab when incubated with the previously established cut-off of 1.8 μg/mL. Positive results are in bold.

MRSA [2] = experiment: Optimization of cefoxitin concentration (Table 2), MRSA strains
Protocol: Bacterial strains were serially diluted to approximately 1×10^3 CFU/mL and transferred to a 96-well plate at 135 μL per well. 15 μL of cefoxitin was added to the wells to reach a final concentration of 1.4 μg/mL, 1.6 μg/mL, 1.8 μg/mL or 2.0 μg/mL. The plate was then sealed and incubated at 37° C. for 2 hours. 10 μL of recombinant phage (1.6×10^8 pfu/mL) was added to each well. The plate was then re-sealed and incubated at 37° C. for an additional 2 hours. A master mix was made containing 15 μL 5× lysis buffer, 50 μL luciferase assay buffer, and 1 μL luciferase substrate per well. 65 μL of master mix was added to each well. Luminescence from the reactions were read on a GLOMAX® Navigator and relative luminal units (RLU) for each reaction were plotted and analyzed. RLU values three times greater than an established background RLU level for LB (>750 RLU) were considered positive. The results, shown in Table 2, indicate that the recombinant phage are capable of detecting these bacterial strains. […] Positive results are in bold.

[3] = strain AR0463 MRSA, detected CFU 419
[4] = strain AR0465 MRSA, detected CFU 111
[5] = strain AR0472 MRSA, detected CFU 190
[6] = strain AR0476 MRSA, detected CFU 194
[7] = strain AR0481 MRSA, detected CFU 43
[8] = strain BAA-1720 MRSA, detected CFU 201
[9] = target swab CFU 8, detected CFU 1
[10] = target swab CFU 16, detected CFU 1
[11] = target swab CFU 31, detected CFU 1
[12] = target swab CFU 63, detected CFU 9
[13] = target swab CFU 125, detected CFU 17
[14] = target swab CFU 250, detected CFU 41
[15] = target swab CFU 500, detected CFU 72
[16] = target swab CFU 1000, detected CFU 136
[17] = strain AR0470 MRSA, detected CFU 314
[18] = strain BAA-2313 MRSA, detected CFU 192

`CO[C@@]1(NC(=O)Cc2cccs2)C(=O)N2C(C(=O)O)=C(COC(N)=O)CS[C@@H]21` [Cefoxitin, cefoxitin] was tested, and the “Cefoxitin (RLU) 2 ug/mL” value (MRSA [1]; [3]) was 1125 RLU, the “Cefoxitin (RLU) 4 ug/mL” value (MRSA [1]; [3]) was 349 RLU and the “Cefoxitin (RLU) 8 ug/mL” value (MRSA [1]; [3]) was 287 RLU. For the same compound, the “Cefoxitin (RLU) 10 ug/mL” value (MRSA [1]; [3]) was 246 RLU, the “Cefoxitin (RLU) 2 ug/mL” value (MRSA [1]; [4]) was 7815 RLU and the “Cefoxitin (RLU) 4 ug/mL” value (MRSA [1]; [4]) was 5254 RLU. For the same compound, the “Cefoxitin (RLU) 8 ug/mL” value (MRSA [1]; [4]) was 4619 RLU, the “Cefoxitin (RLU) 10 ug/mL” value (MRSA [1]; [4]) was 2869 RLU and the “Cefoxitin (RLU) 2 ug/mL” value (MRSA [1]; [5]) was 3538 RLU. For the same compound, the “Cefoxitin (RLU) 4 ug/mL” value (MRSA [1]; [5]) was 229 RLU, the “Cefoxitin (RLU) 8 ug/mL” value (MRSA [1]; [5]) was 239 RLU and the “Cefoxitin (RLU) 10 ug/mL” value (MRSA [1]; [5]) was 220 RLU. The “Cefoxitin (RLU) 2 ug/mL” value (MRSA [1]; [6]) was 1202 RLU, the “Cefoxitin (RLU) 4 ug/mL” value (MRSA [1]; [6]) was 213 RLU and the “Cefoxitin (RLU) 8 ug/mL” value (MRSA [1]; [6]) was 204 RLU. The “Cefoxitin (RLU) 10 ug/mL” value (MRSA [1]; [6]) was 248 RLU, the “Cefoxitin (RLU) 2 ug/mL” value (MRSA [1]; [7]) was 3499 RLU and the “Cefoxitin (RLU) 4 ug/mL” value (MRSA [1]; [7]) was 983 RLU. The “Cefoxitin (RLU) 8 ug/mL” value (MRSA [1]; [7]) was 222 RLU, the “Cefoxitin (RLU) 10 ug/mL” value (MRSA [1]; [7]) was 250 RLU and the “Cefoxitin (RLU) 2 ug/mL” value (MRSA [1]; [8]) was 14910 RLU. The “Cefoxitin (RLU) 4 ug/mL” value (MRSA [1]; [8]) was 11250 RLU, the “Cefoxitin (RLU) 8 ug/mL” value (MRSA [1]; [8]) was 7123 RLU and the “Cefoxitin (RLU) 10 ug/mL” value (MRSA [1]; [8]) was 6431 RLU. For the same compound, the “Cefoxitin (RLU) 1.8 ug/mL” value (BAA-1720 MRSA; [9]) was 559 RLU, the “Cefoxitin (RLU) 3.6 ug/mL” value (BAA-1720 MRSA; [9]) was 429 RLU and the “Cefoxitin (RLU) 5.4 ug/mL” value (BAA-1720 MRSA; [9]) was 336 RLU. The “Cefoxitin (RLU) 1.8 ug/mL” value (BAA-1720 MRSA; [10]) was 1179 RLU, the “Cefoxitin (RLU) 3.6 ug/mL” value (BAA-1720 MRSA; [10]) was 470 RLU and the “Cefoxitin (RLU) 5.4 ug/mL” value (BAA-1720 MRSA; [10]) was 551 RLU. The “Cefoxitin (RLU) 1.8 ug/mL” value (BAA-1720 MRSA; [11]) was 880 RLU, the “Cefoxitin (RLU) 3.6 ug/mL” value (BAA-1720 MRSA; [11]) was 558 RLU and the “Cefoxitin (RLU) 5.4 ug/mL” value (BAA-1720 MRSA; [11]) was 1405 RLU. For the same compound, the “Cefoxitin (RLU) 1.8 ug/mL” value (BAA-1720 MRSA; [12]) was 1280 RLU, the “Cefoxitin (RLU) 3.6 ug/mL” value (BAA-1720 MRSA; [12]) was 1568 RLU and the “Cefoxitin (RLU) 5.4 ug/mL” value (BAA-1720 MRSA; [12]) was 1286 RLU. For the same compound, the “Cefoxitin (RLU) 1.8 ug/mL” value (BAA-1720 MRSA; [13]) was 2512 RLU, the “Cefoxitin (RLU) 3.6 ug/mL” value (BAA-1720 MRSA; [13]) was 1337 RLU and the “Cefoxitin (RLU) 5.4 ug/mL” value (BAA-1720 MRSA; [13]) was 2501 RLU. For the same compound, the “Cefoxitin (RLU) 1.8 ug/mL” value (BAA-1720 MRSA; [14]) was 3766 RLU, the “Cefoxitin (RLU) 3.6 ug/mL” value (BAA-1720 MRSA; [14]) was 4022 RLU and the “Cefoxitin (RLU) 5.4 ug/mL” value (BAA-1720 MRSA; [14]) was 3374 RLU. For the same compound, the “Cefoxitin (RLU) 1.8 ug/mL” value (BAA-1720 MRSA; [15]) was 11590 RLU, the “Cefoxitin (RLU) 3.6 ug/mL” value (BAA-1720 MRSA; [15]) was 7112 RLU and the “Cefoxitin (RLU) 5.4 ug/mL” value (BAA-1720 MRSA; [15]) was 7648 RLU. For the same compound, the “Cefoxitin (RLU) 1.8 ug/mL” value (BAA-1720 MRSA; [16]) was 23820 RLU, the “Cefoxitin (RLU) 3.6 ug/mL” value (BAA-1720 MRSA; [16]) was 17540 RLU and the “Cefoxitin (RLU) 5.4 ug/mL” value (BAA-1720 MRSA; [16]) was 18400 RLU. The “effect on positive signal” value (MRSA [2]; 1.8 ug/mL, most of the tested MRSA strains) was “produced a positive signal”, the “Cefoxitin Concentration 1.4 ug/mL” value (MRSA [2]; strain AR0461 MRSA, detected CFU 140) was 9488 RLU and the “Cefoxitin Concentration 2 ug/mL” value (MRSA [2]; strain AR0467 MRSA, detected CFU 198) was 6615 RLU. The “Cefoxitin Concentration 1.8 ug/mL” value (MRSA [2]; strain AR0469 MRSA, detected CFU 473) was 13490 RLU, the “Cefoxitin Concentration 1.6 ug/mL” value (MRSA [2]; [17]) was 2481 RLU and the “Cefoxitin Concentration 1.8 ug/mL” value (MRSA [2]; [17]) was 2046 RLU. For the same compound, the “Cefoxitin Concentration 1.4 ug/mL” value (MRSA [2]; [18]) was 8601 RLU, the “Cefoxitin Concentration 1.6 ug/mL” value (MRSA [2]; [18]) was 5620 RLU and the “Cefoxitin Concentration 1.8 ug/mL” value (MRSA [2]; [18]) was 3239 RLU. The “Cefoxitin Concentration 2 ug/mL” value (MRSA [2]; [18]) was 2385 RLU.
